Consider three compounds from US11191870B2, “Gel of sodium hyaluronate cross-linked by polyethylene glycol epoxy derivative for injection and preparation method thereof” (JENKEM TECHNOLOGY CO., LTD. (BEIJING), priority 2016, dated 2021).

For data set [1], the system named is cells L929. The data set is described as follows: Cytotoxicity experiment, extraction method, relative growth rate of cells. Particulars: absorbance, higher RCR = lower toxicity, crosslinker compounds.
The subject of data set [2] is cells L929. The data set is described as follows: Median inhibitory concentration (IC50) of crosslinker compounds in cells L929. The data set is classed as cell-based. As to conditions: Mus musculus, L929, read-out: IC50 (median inhibitory concentration). The protocol:
A cytotoxicity experiment is achieved through detecting the propagation rate of cells referring to standards for biological evaluation-in vitro cell toxicity test of medical instruments. In the experiment, an extraction method is adopted, a cell toxicity test is performed by adopting cells L929, a relative growth rate (RCR) of the cells is calculated through assaying the absorbance value by using an enzyme-linked immunoassay instrument, and the higher the RCR, the better the biocompatibility and the lower the toxicity.

Take `C(COCCOCCOCCOCCOCCOCC1CO1)OCCOCCOCCOCCOCCOCCOCC1CO1` (stereo not drawn) [Ib, dodecaethylene glycol diglycidyl ether]: the “RCR (relative growth rate of the cells), polyglycol diglycidyl ether crosslinkers” value in data set [1] is given as 89%. The IC50 in data set [2] stood at 2.3 mM.
With `C(COCCOCCOCCOCCOCCOCCOCCOCCOCCOCCOCCOCC1CO1)OCCOCCOCCOCCOCCOCCOCCOCCOCCOCCOCCOCCOCC1CO1` (stereo not drawn) [Ic, tetracosaethylene glycol diglycidyl ether], the “RCR (relative growth rate of the cells), polyglycol diglycidyl ether crosslinkers” value in data set [1] is listed as 89%. The IC50 in data set [2] was 1.88 mM.
For `C(COCCOCC1CO1)OCCOCCOCC1CO1` (stereo not drawn) [Ia, tetraethylene glycol diglycidyl ether], in that order: 62% and 0.127 mM.
